Reference: PubChem BioAssay AID248 (DTP/NCI, 2004)
“And” between values parts separate entries of the source, which are not always exact repeats. Equal values may be shown once. Toxic doses and inconclusive results are not listed. No stated cut-off is given here; in the data, active means T/C of 150% or more; inactive means T/C below 125%.

System: L1210 leukemia ip in BDF1 mice, survival T/C
Assay: NCI In Vivo Anticancer Drug Screen. Data for tumor model L1210 Leukemia (intraperitoneal) in B6D2F1 (BDF1) mice
Conditions: endpoint: mean survival time, higher = longer survival
Summary of the method: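 Survival endpoint. Drug-treated group vs vehicle group, expressed as T divided by C. Tumor passaged by transplantation.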

[1] = dose: 12.5 mg/kg/injection, schedule: Q04DX003 (ip), vehicle: saline
[2] = dose: 25.0 mg/kg/injection, schedule: Q04DX003 (ip), vehicle: saline
[3] = dose: 50.0 mg/kg/injection, schedule: Q04DX003 (ip), vehicle: saline
[4] = dose: 100.0 mg/kg/injection, schedule: Q01DX009 (ip), vehicle: Klucel (hydroxypropylcellulose) (HPC)
[5] = dose: 200.0 mg/kg/injection, schedule: Q01DX009 (ip), vehicle: Klucel (hydroxypropylcellulose) (HPC)
[6] = dose: 400.0 mg/kg/injection, schedule: Q01DX009 (ip), vehicle: Klucel (hydroxypropylcellulose) (HPC)
[7] = dose: 100.0 mg/kg/injection, schedule: Q01DX001 (ip), vehicle: saline
[8] = dose: 50.0 mg/kg/injection, schedule: Q01DX009 (ip), vehicle: saline
[9] = dose: 100.0 mg/kg/injection, schedule: Q01DX009 (ip), vehicle: saline
[10] = dose: 100.0 mg/kg/injection, schedule: Q04DX003 (ip), vehicle: saline
[11] = dose: 200.0 mg/kg/injection, schedule: Q04DX003 (ip), vehicle: saline
[12] = dose: 400.0 mg/kg/injection, schedule: Q04DX003 (ip), vehicle: saline
[13] = dose: 50.0 mg/kg/injection, schedule: Q01DX001 (ip), vehicle: carboxymethylcellulose (CMC)
[14] = dose: 100.0 mg/kg/injection, schedule: Q01DX001 (ip), vehicle: carboxymethylcellulose (CMC)
[15] = dose: 200.0 mg/kg/injection, schedule: Q01DX001 (ip), vehicle: carboxymethylcellulose (CMC)
[16] = dose: 200.0 mg/kg/injection, schedule: Q01DX001 (ip), vehicle: saline
[17] = dose: 400.0 mg/kg/injection, schedule: Q01DX001 (ip), vehicle: carboxymethylcellulose (CMC)
[18] = dose: 400.0 mg/kg/injection, schedule: Q01DX001 (ip), vehicle: saline
[19] = dose: 100.0 mg/kg/injection, schedule: Q01DX009 (ip), vehicle: saline with Tween-80
[20] = dose: 12.5 mg/kg/injection, schedule: Q01DX009 (ip), vehicle: Klucel (hydroxypropylcellulose) (HPC)
[21] = dose: 25.0 mg/kg/injection, schedule: Q01DX009 (ip), vehicle: Klucel (hydroxypropylcellulose) (HPC)
[22] = dose: 50.0 mg/kg/injection, schedule: Q01DX009 (ip), vehicle: Klucel (hydroxypropylcellulose) (HPC)

Measured: T/C

CC(C)(C)c1ccc(N)cc1
inactive: [1] 106 % of control | [2] 95 % of control | [3] 98 % of control

O=C(NCCCl)N(c1ccccc1)c1cccc(C(F)(F)F)c1
inactive: dose: 100.0 mg/kg/injection, schedule: Q01DX005 (ip), vehicle: Klucel (hydroxypropylcellulose) (HPC) 102 % of control | [4] 98 % of control | dose: 100.0 mg/kg/injection, schedule: Q04DX002 (ip), vehicle: Klucel (hydroxypropylcellulose) (HPC) 114 % of control | dose: 200.0 mg/kg/injection, schedule: Q01DX005 (ip), vehicle: Klucel (hydroxypropylcellulose) (HPC) 91 % of control | [5] 98 % of control | dose: 200.0 mg/kg/injection, schedule: Q04DX002 (ip), vehicle: Klucel (hydroxypropylcellulose) (HPC) 96 % of control | dose: 400.0 mg/kg/injection, schedule: Q01DX005 (ip), vehicle: Klucel (hydroxypropylcellulose) (HPC) 94 % of control | [6] 98 % of control | dose: 400.0 mg/kg/injection, schedule: Q04DX002 (ip), vehicle: Klucel (hydroxypropylcellulose) (HPC) 104 % of control

CCCC(C)C(C)CC (configuration not stated)
inactive: dose: 25.0 mg/kg/injection, schedule: Q01DX001 (ip), vehicle: saline sonified 107 % of control | dose: 50.0 mg/kg/injection, schedule: Q01DX001 (ip), vehicle: saline sonified 98 % of control | dose: 100.0 mg/kg/injection, schedule: Q01DX001 (ip), vehicle: saline sonified 93 % of control

Cc1csc(=S)n1-c1ccc(Cl)cc1
inactive: dose: 100.0 mg/kg/injection, schedule: Q01DX001 (ip), vehicle: saline with Tween-80 107 % of control | dose: 200.0 mg/kg/injection, schedule: Q01DX001 (ip), vehicle: saline with Tween-80 100 % of control | dose: 400.0 mg/kg/injection, schedule: Q01DX001 (ip), vehicle: saline with Tween-80 98 % of control

CCC[CH2][Sn]1([CH2]CCC)[O]C(=O)c2cccc([N+](=O)[O-])c2C(=O)[O]1
inactive: [7] 117 % of control

NOCc1cccc2cccnc12
inactive: dose: 25.0 mg/kg/injection, schedule: Q01DX009 (ip), vehicle: saline 100 % of control | [8] 100 % of control | [9] 97 % of control | [10] 89 % of control | [11] 94 % of control | [12] 96 % of control

CC(=O)NC(C(=O)O)C(C)C(=O)O (configuration not stated)
inactive: [10] 90 % of control | [11] 93 % of control | [12] 92 % of control

O=C(NO)c1ccc([N+](=O)[O-])cc1
inactive: [4] 92 % of control | dose: 180.0 mg/kg/injection, schedule: Q01DX015 (ip), vehicle: water 101 % of control | [5] 103 % of control | dose: 270.0 mg/kg/injection, schedule: Q01DX015 (ip), vehicle: water 107 % of control and 117 % of control and 119 % of control | dose: 400.0 mg/kg/injection, schedule: Q01DX001 (ip), vehicle: water 97 % of control | [6] 109 % of control | dose: 600.0 mg/kg/injection, schedule: Q01DX001 (ip), vehicle: water 97 % of control

C[N+]12CN3CN(CN(C3)C1)C2
inactive: [13] 104 % of control | [14] 106 % of control | [7] 100 % of control | [9] 110 % of control | [15] 101 % of control | [16] 91 % of control | dose: 200.0 mg/kg/injection, schedule: Q01DX009 (ip), vehicle: saline 114 % of control | [17] 98 % of control | [18] 96 % of control | dose: 400.0 mg/kg/injection, schedule: Q01DX009 (ip), vehicle: saline 105 % of control

O=C(CBr)c1ccc(/C=C/c2ccc(Cl)cc2)cc1
inactive: [19] 94 % of control

C=C(Br)CNC(=O)Nc1c2ccccc2nc2ccccc12
inactive: [20] 86 % of control | [21] 88 % of control | [22] 89 % of control | [4] 92 % of control | dose: 150.0 mg/kg/injection, schedule: Q01DX009 (ip), vehicle: Klucel (hydroxypropylcellulose) (HPC) 89 % of control | dose: 300.0 mg/kg/injection, schedule: Q01DX009 (ip), vehicle: Klucel (hydroxypropylcellulose) (HPC) 91 % of control

O=C(Nc1ccc2c(c1)OCO2)O/N=C1\C(=O)Nc2ccccc21
inactive: [8] 103 % of control | [9] 100 % of control

N=C(N)c1ccc(-c2[nH]c3cc(C(=N)N)ccc3c2-c2ccccc2)cc1
inactive: [1] 100 % of control and 110 % of control | [2] 100 % of control and 110 % of control | [3] 108 % of control and 112 % of control

CCCC[n+]1cccc(C(N)=O)c1
inactive: [10] 100 % of control | [11] 100 % of control | [12] 89 % of control

CN(C)c1ccc(C=Nc2ccc(N(C)C)cc2)cc1
inactive: [14] 105 % of control | dose: 100.0 mg/kg/injection, schedule: Q01DX009 (ip), vehicle: carboxymethylcellulose (CMC) 96 % of control and 92 % of control | dose: 100.0 mg/kg/injection, schedule: Q04DX002 (ip), vehicle: carboxymethylcellulose (CMC) 102 % of control and 104 % of control | dose: 100.0 mg/kg/injection, schedule: Q04DX003 (ip), vehicle: carboxymethylcellulose (CMC) 102 % of control | [15] 93 % of control | dose: 200.0 mg/kg/injection, schedule: Q01DX009 (ip), vehicle: carboxymethylcellulose (CMC) 86 % of control and 88 % of control | dose: 200.0 mg/kg/injection, schedule: Q04DX002 (ip), vehicle: carboxymethylcellulose (CMC) 98 % of control and 105 % of control | dose: 200.0 mg/kg/injection, schedule: Q04DX003 (ip), vehicle: carboxymethylcellulose (CMC) 92 % of control | [17] 88 % of control | dose: 400.0 mg/kg/injection, schedule: Q01DX009 (ip), vehicle: carboxymethylcellulose (CMC) 86 % of control and 92 % of control | dose: 400.0 mg/kg/injection, schedule: Q04DX002 (ip), vehicle: carboxymethylcellulose (CMC) 97 % of control and 100 % of control | dose: 400.0 mg/kg/injection, schedule: Q04DX003 (ip), vehicle: carboxymethylcellulose (CMC) 92 % of control

COc1ccc([N+](=O)[O-])cc1CN(C)C(C)C
inactive: [20] 97 % of control | dose: 12.5 mg/kg/injection, schedule: Q04DX003 (ip), vehicle: Klucel (hydroxypropylcellulose) (HPC) 97 % of control | [21] 97 % of control | dose: 25.0 mg/kg/injection, schedule: Q04DX003 (ip), vehicle: Klucel (hydroxypropylcellulose) (HPC) 100 % of control | [22] 92 % of control | dose: 50.0 mg/kg/injection, schedule: Q04DX003 (ip), vehicle: Klucel (hydroxypropylcellulose) (HPC) 97 % of control

CCOC(=O)c1cn(C2OC(COC(C)=O)C(OC(C)=O)C2OC(C)=O)c2nc(SC)nc(NC(C)=O)c2c1=O (configuration not stated)
inactive: dose: 100.0 mg/kg/injection, schedule: Q01DX005 (ip), vehicle: saline 97 % of control | dose: 200.0 mg/kg/injection, schedule: Q01DX005 (ip), vehicle: saline 91 % of control

c1ccc(-c2cc3c(-c4ccccc4)c4ccccc4c(-c4ccccc4)c3cc2-c2ccccc2)cc1
inactive: dose: 50.0 mg/kg/injection, schedule: Q01DX009 (ip), vehicle: saline with Tween-80 96 % of control | [19] 96 % of control | dose: 200.0 mg/kg/injection, schedule: Q01DX009 (ip), vehicle: saline with Tween-80 108 % of control

CC(NC(=O)OCc1ccccc1)C(=O)NC(Cc1ccccc1)C(=O)OCc1ccccc1 (configuration not stated)
inactive: dose: 100.0 mg/kg/injection, schedule: Q04DX003 (ip), vehicle: saline with Tween-80 95 % of control | dose: 400.0 mg/kg/injection, schedule: Q04DX003 (ip), vehicle: saline with Tween-80 91 % of control

CCOC(=O)C(=O)c1cn(C)c2ccccc12
inactive: [13] 109 % of control | [14] 106 % of control | [15] 106 % of control | [17] 101 % of control

CC(=O)CC(=O)Nc1ccc(Cc2ccc(Br)cc2)cc1
inactive: [7] 96 % of control | [16] 95 % of control | [18] 91 % of control

CC1(C)CN1c1nc(N2CC2(C)C)nc(N2CC2(C)C)n1
inactive: dose: 44.0 mg/kg/injection, schedule: Q01DX001 (ip), vehicle: carboxymethylcellulose (CMC) 106 % of control and 108 % of control | dose: 66.0 mg/kg/injection, schedule: Q01DX001 (ip), vehicle: carboxymethylcellulose (CMC) 106 % of control and 108 % of control | [14] 113 % of control and 120 % of control | dose: 150.0 mg/kg/injection, schedule: Q01DX001 (ip), vehicle: carboxymethylcellulose (CMC) 116 % of control and 118 % of control | [15] 118 % of control
